Here are results for 21 molecules from patent US20250171420A1 (Monte Rosa Therapeutics, Inc., priority 2022, published 2025).

For test [1], the target named is T1, CK1α (Homo sapiens, UniProt P48729).
T1 construct: HEK293 clonal lines with CRISPR KI HiBiT tag on CSNK1A1
As to the kind of experiment: CK1α NanoBit Assay (HiBiT-tagged CSNK1A1, HEK293 clonal lines). Conditions: HEK293 HiBiT-CSNK1A1/LgBiT cells, 24 h incubation. Format: cell-based. An outline of the steps:
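HEK293 clones carrying a CRISPR knock-in HiBiT tag on CSNK1A1 and stably expressing LgBiT are treated with compound for 24 hours at 37° C, 5% CO2, then read by luminescence. Response is normalized as 100*(S−N)/(P−N) against plate negative and positive controls, and DC50 values are derived.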
A general note: HiBiT is a short tag that completes a luciferase, so light tracks the accessible tagged protein.

Test [2] addresses CRBN/DDB1 (Homo sapiens, UniProt Q96SW2). As to the kind of experiment: HTRF binding assay (displacement of Cy5-thalidomide probe from CRBN/DDB1). Conditions: CRBN/DDB1 2.5 nM, Cy5-Thalidomide 100 nM, 30 min; geometric mean; read-out: HTRF_Thali_Disp_DR_geo_IC50. The source says: Binding of test compounds to CRBN/DDB1 was monitored in an HTRF assay using 1-[5-({2-[2-(2-{[2-(2,6-dioxopiperidin-3-yl)-1,3-dioxo-2,3-dihydro-1H-isoindol-4-yl]oxy}acetamido)ethoxy]ethyl}carbamoyl)pentyl]-3,3-dimethyl-2-[(1E,3E)-5-[(2E)-1,3,3-trimethyl-5-sulfo-2,3-dihydro-1H-indol-2-ylidene]penta-1,3-dien-1-yl]-3H-indol-1-ium-5-sulfonate as a fluorescent probe. In this assay, compounds displace the fluorescently labeled thalidomide-based probe bound to CRBN and fluorescence is monitored with increasing compound concentration. Assays were conducted in Greiner white 384 well HiBase plates (Cat. No 784075-25) in 10 μL total volume. A one pot detection solution of CRBN/DDB1 (2.5 nM), anti-His Terbium Cryptate Gold (1×, PerkinElmer Cat. #: 61HI2TLB), and Cy5-Thalidomide (100 nM, Tenova Cat.: T52461) was prepared in 20 mM HEPES, 20 mM NaCl, 0.2 mM TCEP, 0.2 mM EDTA, and 0.005% Tween20 was dispensed to each assay plate. Test compounds were stored in dry, ambient temperatures at 10 mM. A 10-point, 1:3 dilution series was prepared from 10 mM stock concentrations in Echo-compatible LDV plates. 10 nL of each compound dilution series was dispensed into assays wells using an Echo 650 (Labcyte inc. USA). 10 nL of 10 mM lenalidomide (Selleckchem Cat no. S1029) was transferred into the active-control wells for the assay and 10 nL of DMSO was transferred into the negative control wells. The assay was then allowed to incubate for 30 min at ambient temperature after transferring the test compounds. Plate measurements were taken on a Pherastar FSX (BMG Labtech, Germany) using the HTRF Red filter (Ex. 337 nm, em1: 620 nm, em2: 665 nm) (Flashes: 50, Integration time: 60-400 μs, Z-height: 10 mm, Ratio-multiplier: 10,000). Analysis, HTRF ratio and IC50 values were derived using KNIME analytics (KNIME Zurich) transformation and fitting within Collaborative Drug Discovery (Collaborative Drug Discovery USA) using a 4-parameter logistic fit. HTRF ratio calculation was performed using the following formula: […]
where Y represents the HTRF ratio response (as defined previously), X the compound concentration in μM, Ymin the minimum response plateau, Ymax the maximum response plateau, IC50 the concentration of agonist that gives a response half way between Ymin and Ymax and HillSlope the steepness of the family of curves. No fitting model constraints was applied on Ymin, or Ymax whilst IC50>0 and −0.5>HillSlope>−3
Ki values were derived from the geometric mean of the IC50 values using the Cheng-Prusoff transformation:
where [L] represents the concentration of fluorescent probe in μM, Kd the affinity (binding constant) of the fluorescent probe in units of μM and IC50 the concentration of agonist that gives a response halfway between Ymin and Ymax (as described in 1.2.1)
Analysis and IC50 values were derived using KNIME analytics (KNIME, Zurich) transformation and fitting within Collaborative Drug Discovery (Collaborative Drug Discovery, USA) as described in 1.2.1. Ki values were derived from the geometric mean of the IC50 values using the Cheng-Prusoff transformation as described in 2.2.2. Data was visualized in GraphPad Prism 8.1.2 (GraphPad, USA) and reported as mean and standard deviation. Microsoft Office Excel 2012 (Redmond, WA) was used for calculation of mean and standard deviation.
IC50 data are reported in Table 3 for compounds in Table 1. In Table 3 below, According to the code, A represents a IC50 value of ≤0.1 μM, B represents a IC50 value>0.1 μM and ≤1 μM, C represents an IC50 value>1 μM.
For orientation: Time-resolved FRET reads energy transfer from a long-lived donor to a nearby acceptor.

SMILES strings stand for the structures.

T1 sequence (P48729 whole entry): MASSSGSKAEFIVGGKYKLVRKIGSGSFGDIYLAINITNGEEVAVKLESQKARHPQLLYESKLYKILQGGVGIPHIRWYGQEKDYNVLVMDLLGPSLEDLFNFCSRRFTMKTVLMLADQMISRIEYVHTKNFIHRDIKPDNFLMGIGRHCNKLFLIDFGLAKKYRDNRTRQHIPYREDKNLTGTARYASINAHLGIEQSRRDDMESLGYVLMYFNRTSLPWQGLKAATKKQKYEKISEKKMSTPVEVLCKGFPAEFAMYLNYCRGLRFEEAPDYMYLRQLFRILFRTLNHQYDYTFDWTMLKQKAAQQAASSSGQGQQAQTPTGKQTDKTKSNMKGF
T1 sequence (Q96SW2 whole entry, further chain): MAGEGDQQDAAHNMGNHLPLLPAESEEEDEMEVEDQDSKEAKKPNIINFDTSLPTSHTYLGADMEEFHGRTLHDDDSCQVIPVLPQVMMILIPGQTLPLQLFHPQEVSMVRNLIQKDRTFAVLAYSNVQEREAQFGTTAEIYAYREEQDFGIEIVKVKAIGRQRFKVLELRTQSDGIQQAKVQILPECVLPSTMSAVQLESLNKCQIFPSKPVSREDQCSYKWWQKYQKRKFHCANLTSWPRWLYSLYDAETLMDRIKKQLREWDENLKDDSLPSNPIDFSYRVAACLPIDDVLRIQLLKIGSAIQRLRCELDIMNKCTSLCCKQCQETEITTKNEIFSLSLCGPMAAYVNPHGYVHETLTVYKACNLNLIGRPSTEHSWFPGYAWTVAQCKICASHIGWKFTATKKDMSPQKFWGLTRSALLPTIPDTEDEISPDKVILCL
T1 sequence (Q16531 2-1140 partner limits assumed): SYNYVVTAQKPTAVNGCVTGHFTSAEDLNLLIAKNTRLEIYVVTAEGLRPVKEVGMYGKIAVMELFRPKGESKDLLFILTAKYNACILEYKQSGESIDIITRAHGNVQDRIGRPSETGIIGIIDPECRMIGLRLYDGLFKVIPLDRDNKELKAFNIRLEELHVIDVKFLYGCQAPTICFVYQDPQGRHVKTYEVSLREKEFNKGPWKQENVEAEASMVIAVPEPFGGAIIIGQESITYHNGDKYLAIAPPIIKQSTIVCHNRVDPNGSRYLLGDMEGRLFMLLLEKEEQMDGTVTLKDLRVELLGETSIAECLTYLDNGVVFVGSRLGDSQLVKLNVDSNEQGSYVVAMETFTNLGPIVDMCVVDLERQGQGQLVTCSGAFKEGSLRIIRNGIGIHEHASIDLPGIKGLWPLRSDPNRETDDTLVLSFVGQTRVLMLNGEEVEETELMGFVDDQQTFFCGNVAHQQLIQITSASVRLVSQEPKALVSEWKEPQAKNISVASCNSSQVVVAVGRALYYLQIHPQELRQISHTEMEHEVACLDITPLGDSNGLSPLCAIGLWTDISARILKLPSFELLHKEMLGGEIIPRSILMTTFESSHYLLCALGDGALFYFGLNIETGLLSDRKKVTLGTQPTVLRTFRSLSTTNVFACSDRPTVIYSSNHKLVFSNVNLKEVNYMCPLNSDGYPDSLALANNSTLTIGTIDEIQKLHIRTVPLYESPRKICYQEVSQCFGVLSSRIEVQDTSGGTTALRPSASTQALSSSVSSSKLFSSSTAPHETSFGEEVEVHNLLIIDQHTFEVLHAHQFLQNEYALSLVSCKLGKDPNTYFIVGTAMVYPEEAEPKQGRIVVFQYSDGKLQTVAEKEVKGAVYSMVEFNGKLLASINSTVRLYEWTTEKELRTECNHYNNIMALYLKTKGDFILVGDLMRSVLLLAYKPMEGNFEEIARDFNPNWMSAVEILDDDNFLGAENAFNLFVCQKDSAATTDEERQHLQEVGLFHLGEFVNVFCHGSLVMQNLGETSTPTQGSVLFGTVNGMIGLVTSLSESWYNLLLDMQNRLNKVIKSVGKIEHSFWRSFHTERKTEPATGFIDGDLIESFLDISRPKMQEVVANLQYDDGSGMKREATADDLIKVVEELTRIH
Sequence of CRBN/DDB1 (Q96SW2 whole entry, species assumed): as the sequence (Q96SW2 whole entry, further chain) above
Sequence of CRBN/DDB1 (Q16531 whole entry partner, species assumed): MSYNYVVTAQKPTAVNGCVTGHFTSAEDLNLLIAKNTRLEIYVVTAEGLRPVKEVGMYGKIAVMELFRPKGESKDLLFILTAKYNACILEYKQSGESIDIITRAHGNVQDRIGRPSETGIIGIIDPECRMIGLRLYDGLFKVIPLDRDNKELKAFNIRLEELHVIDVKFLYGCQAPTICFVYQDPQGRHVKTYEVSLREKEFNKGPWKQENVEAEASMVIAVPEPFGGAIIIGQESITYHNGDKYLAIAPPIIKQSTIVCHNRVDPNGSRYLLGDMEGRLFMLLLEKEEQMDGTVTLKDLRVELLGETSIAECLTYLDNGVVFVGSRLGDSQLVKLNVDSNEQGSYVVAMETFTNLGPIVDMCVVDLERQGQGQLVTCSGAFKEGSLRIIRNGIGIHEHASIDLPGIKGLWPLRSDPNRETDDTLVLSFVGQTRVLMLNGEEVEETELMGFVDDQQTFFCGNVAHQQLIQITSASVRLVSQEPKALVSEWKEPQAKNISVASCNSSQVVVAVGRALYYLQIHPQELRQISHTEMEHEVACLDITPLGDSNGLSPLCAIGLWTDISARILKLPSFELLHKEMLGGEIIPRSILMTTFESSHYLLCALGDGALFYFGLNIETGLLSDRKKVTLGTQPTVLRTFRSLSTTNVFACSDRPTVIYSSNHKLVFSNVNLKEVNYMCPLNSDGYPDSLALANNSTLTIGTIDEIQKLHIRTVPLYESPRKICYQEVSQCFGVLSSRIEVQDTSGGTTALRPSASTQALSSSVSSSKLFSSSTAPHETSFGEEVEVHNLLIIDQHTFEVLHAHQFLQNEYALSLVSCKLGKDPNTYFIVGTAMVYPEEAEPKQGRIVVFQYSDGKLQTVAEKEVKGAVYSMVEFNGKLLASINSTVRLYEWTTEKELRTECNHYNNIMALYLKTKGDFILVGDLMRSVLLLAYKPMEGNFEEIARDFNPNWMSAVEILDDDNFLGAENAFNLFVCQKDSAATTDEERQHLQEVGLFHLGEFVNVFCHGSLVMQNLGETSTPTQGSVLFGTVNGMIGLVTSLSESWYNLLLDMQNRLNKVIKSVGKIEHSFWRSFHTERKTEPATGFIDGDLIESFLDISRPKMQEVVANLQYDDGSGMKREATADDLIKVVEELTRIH

Regarding `COC[C@H]1CN(C(=O)Nc2ccc3c(c2)CN(C2CCC(=O)NC2=O)C3=O)c2ccc(C(F)(F)F)cc21` (stereo partly drawn) [Compound 319, (3R)—N-(2-(2,6-dioxopiperidin-3-yl)-1-oxoisoindolin-5-yl)-3-(methoxymethyl)-5-(trifluoromethyl)indoline-1-carboxamide], the DC50 in test [1] was under 0.1 µM. In addition, in test [2], the IC50 lay in the range of 100 to 1000 nM.

As for `CCc1cccc2c1N(C(=O)Nc1ccc3c(c1)CN(C1CCC(=O)NC1=O)C3=O)CC2` (stereo not drawn) [Compound 162, N-(2-(2,6-dioxopiperidin-3-yl)-1-oxoisoindolin-5-yl)-7-ethylindoline-1-carboxamide], in test [1], the DC50 was under 0.1 µM. Moreover, the IC50 in test [2] fell in the range of 100 to 1000 nM.

In test [1], `O=C1CCC(N2Cc3cc(NC(=O)N4CCc5ccc(C6COC6)cc54)ccc3C2=O)C(=O)N1` (stereo not drawn) [Compound 347, N-(2-(2,6-dioxopiperidin-3-yl)-1-oxoisoindolin-5-yl)-6-(oxetan-3-yl)indoline-1-carboxamide] displayed a DC50 of 0.1 to 1 µM. Besides, in test [2], the IC50 lay in the range of 100 to 1000 nM.

In the case of `O=C1CCC(N2Cc3cc(NC(=O)N4CCc5ccc(C6CCC6)cc54)ccc3C2=O)C(=O)N1` (stereo not drawn) [Compound 358, 6-cyclobutyl-N-(2-(2,6-dioxopiperidin-3-yl)-1-oxoisoindolin-5-yl)indoline-1-carboxamide], the DC50 in test [1] was under 0.1 µM. Also, the IC50 in test [2] was in the range of 100 to 1000 nM.

The molecule `O=C1CCC(N2Cc3cc(NC(=O)N4c5ccccc5C[C@H]4COCC(F)(F)F)ccc3C2=O)C(=O)N1` (stereo partly drawn) [Compound 316, (2S)—N-(2-(2,6-dioxopiperidin-3-yl)-1-oxoisoindolin-5-yl)-2-((2,2,2-trifluoroethoxy)methyl)indoline-1-carboxamide] registered a DC50 in test [1] of under 0.1 µM. For the same molecule, the IC50 in test [2] lay in the range of 100 to 1000 nM.

In test [1], `CCOC[C@@H]1Cc2ccccc2N1C(=O)Nc1ccc2c(c1)CN(C1CCC(=O)NC1=O)C2=O` (stereo partly drawn) [Compound 313, (2S)—N-(2-(2,6-dioxopiperidin-3-yl)-1-oxoisoindolin-5-yl)-2-(ethoxymethyl)indoline-1-carboxamide] had a DC50 of under 0.1 µM. For the same molecule, the IC50 in test [2] fell in the range of 100 to 1000 nM.

Consider `COCC1Cc2cc(C(F)(F)F)ncc2N1C(=O)Nc1ccc2c(c1)CN(C1CCC(=O)NC1=O)C2=O` (stereo not drawn) [Compound 321, N-(2-(2,6-dioxopiperidin-3-yl)-1-oxoisoindolin-5-yl)-2-(methoxymethyl)-5-(trifluoromethyl)-2,3-dihydro-1H-pyrrolo[2,3-c]pyridine-1-carboxamide], for which the DC50 in test [1] is under 0.1 µM. Further, in test [2], the IC50 fell in the range of 100 to 1000 nM.

In test [1], `CN1CCN(C(=O)Nc2ccc3c(c2)CN(C2CCC(=O)NC2=O)C3=O)c2ccccc21` (stereo not drawn) [Compound 286] showed a DC50 of 0.1 to 1 µM. For the same molecule, the IC50 in test [2] lay in the range of 100 to 1000 nM.

Consider `O=C1CCC(N2Cc3cc(NC(=O)N4CCc5cccnc54)ccc3C2=O)C(=O)N1` (stereo not drawn) [Compound 112, N-(2-(2,6-dioxopiperidin-3-yl)-1-oxoisoindolin-5-yl)-2,3-dihydro-1H-pyrrolo[2,3-b]pyridine-1-carboxamide], for which the DC50 in test [1] was 0.1 to 1 µM. The IC50 in test [2] was over 1000 nM.

Molecule `CC(C)C1CN(C(=O)Nc2ccc3c(c2)CN(C2CCC(=O)NC2=O)C3=O)c2ccccc21` (stereo not drawn) [Compound 203, N-(2-(2,6-dioxopiperidin-3-yl)-1-oxoisoindolin-5-yl)-3-isopropylindoline-1-carboxamide] returned a DC50 in test [1] of under 0.1 µM. Besides, in test [2], the IC50 lay within 100 to 1000 nM.

Take `O=C1CCC(N2Cc3cc(NC(=O)N4CCc5c(C6COC6)cccc54)ccc3C2=O)C(=O)N1` (stereo not drawn) [Compound 342, N-(2-(2,6-dioxopiperidin-3-yl)-1-oxoisoindolin-5-yl)-4-(oxetan-3-yl)indoline-1-carboxamide]: in test [1], the DC50 is under 0.1 µM. The IC50 in test [2] fell in the range of 100 to 1000 nM.

In test [1], `O=C1CCC(N2Cc3cc(NC(=O)N4CCc5cc(C6CCOCC6)ccc54)ccc3C2=O)C(=O)N1` (stereo not drawn) [Compound 349, N-(2-(2,6-dioxopiperidin-3-yl)-1-oxoisoindolin-5-yl)-5-(tetrahydro-2H-pyran-4-yl)indoline-1-carboxamide] showed a DC50 of under 0.1 µM. In test [2], the IC50 is 100 to 1000 nM.

Turning to `O=C1CCC(N2Cc3cc(NC(=O)N4CCc5ccc(-n6cccn6)cc54)ccc3C2=O)C(=O)N1` (stereo not drawn) [Compound 290], in test [1], the DC50 is under 0.1 µM. Moreover, the IC50 in test [2] lay within 100 to 1000 nM.

Turning to `O=C1CCC(N2Cc3cc(NC(=O)N4c5ccc(F)cc5CC45COC5)ccc3C2=O)C(=O)N1` (stereo not drawn) [Compound 306, N-(2-(2,6-dioxopiperidin-3-yl)-1-oxoisoindolin-5-yl)-5-fluorospiro[indoline-2,3′-oxetane]-1-carboxamide], in test [1], the DC50 was under 0.1 µM. The IC50 in test [2] was 100 to 1000 nM.

Regarding `CN(C)C(=O)[C@@H]1Cc2ccccc2N1C(=O)Nc1ccc2c(c1)CN(C1CCC(=O)NC1=O)C2=O` (stereo partly drawn) [Compound 327, (2S)-N1-(2-(2,6-dioxopiperidin-3-yl)-1-oxoisoindolin-5-yl)-N2,N2-dimethylindoline-1,2-dicarboxamide], the DC50 in test [1] is 0.1 to 1 µM. Moreover, the IC50 in test [2] was in the range of 100 to 1000 nM.

In test [1], `O=C1CCC(N2Cc3cc(NC(=O)N4CC5(CCOC5)c5ccccc54)ccc3C2=O)C(=O)N1` (stereo not drawn) [Compound 317, N-(2-(2,6-dioxopiperidin-3-yl)-1-oxoisoindolin-5-yl)-4,5-dihydro-2H-spiro[furan-3,3′-indoline]-1′-carboxamide] yielded a DC50 of under 0.1 µM. Moreover, the IC50 in test [2] was in the range of 100 to 1000 nM.

As for `CN1CCN(c2ccc3c(c2)CCN3C(=O)Nc2ccc3c(c2)CN(C2CCC(=O)NC2=O)C3=O)CC1` (stereo not drawn) [Compound 351, N-(2-(2,6-dioxopiperidin-3-yl)-1-oxoisoindolin-5-yl)-5-(4-methylpiperazin-1-yl)indoline-1-carboxamide], in test [1], the DC50 was in the range of 0.1 to 1 µM. For the same molecule, the IC50 in test [2] fell in the range of 100 to 1000 nM.

With `O=C1CCC(N2Cc3cc(NC(=O)N4CCc5cccc(Cl)c54)ccc3C2=O)C(=O)N1` (stereo not drawn) [Compound 152, 7-chloro-N-(2-(2,6-dioxopiperidin-3-yl)-1-oxoisoindolin-5-yl) indoline-1-carboxamide], the DC50 in test [1] is under 0.1 µM. The IC50 in test [2] was 100 to 1000 nM.

Turning to `COC[C@@H]1Cc2cc(C(F)(F)F)ncc2N1C(=O)Nc1ccc2c(c1)CN(C1CCC(=O)NC1=O)C2=O` (stereo partly drawn) [Compound 294, (2S)—N-(2-(2,6-dioxopiperidin-3-yl)-1-oxoisoindolin-5-yl)-2-(methoxymethyl)-5-(trifluoromethyl)-2,3-dihydro-1H-pyrrolo[2,3-c]pyridine-1-carboxamide], the DC50 in test [1] is under 0.1 µM. Moreover, the IC50 in test [2] lay in the range of 100 to 1000 nM.

In test [1], `C[C@@H]1Cc2ccccc2N1C(=O)Nc1ccc2c(c1F)CN(C1CCC(=O)NC1=O)C2=O` (stereo partly drawn) [Compound 289, (2R)—N-(2-(2,6-dioxopiperidin-3-yl)-4-fluoro-1-oxoisoindolin-5-yl)-2-methylindoline-1-carboxamide] showed a DC50 of under 0.1 µM. Also, in test [2], the IC50 was in the range of 100 to 1000 nM.

In turn, `COC[C@@H]1Cc2c(F)cccc2N1C(=O)Nc1ccc2c(c1)CN(C1CCC(=O)NC1=O)C2=O` (stereo partly drawn) [Compound 314, (2S)—N-(2-(2,6-dioxopiperidin-3-yl)-1-oxoisoindolin-5-yl)-4-fluoro-2-(methoxymethyl)indoline-1-carboxamide] displayed a DC50 in test [1] of under 0.1 µM. In addition, in test [2], the IC50 was 100 to 1000 nM.
